Measurements published in US20060160887A1, “Medicinal composition” (Kyowa Hakko Kogyo Co., Ltd., priority 2003, published 2006).

Columns and labels:
[1] = tested on: A-type potassium channels; details: known from WO02/078523 and WO02/078710; cited from earlier work
[2] = tested on: premicturition contractions in rats with spinal cord injury; experiment: Inhibitory activity on detrusor overactivity (cystometry, premicturition contractions) in rats with spinal cord injury; assay type: in vivo, rat; details: p.o.; for amplitude of premicturition contractions (relative value, before administration = 100) / frequency of premicturition contractions (relative value, before administration = 100): female SD rats with spinal cord injury, mean ± SE, n = 9; for effect on premicturition contractions (amplitude and frequency of premicturition contractions), in words: rats with spinal cord injury, summary of Tables 1 and 2
Source text: Spinal cord was injured in the rats.

[3] = Compound (Ia) 0.01 mg/kg, after 1 hour
[4] = Compound (Ia) 0.01 mg/kg, after 3 hours
[5] = Compound (Ia) 0.01 mg/kg, after 5 hours
[6] = Tolterodine 3 mg/kg, after 1 hour
[7] = Tolterodine 3 mg/kg, after 3 hours
[8] = Tolterodine 3 mg/kg, after 5 hours

CC(O)(C(=O)Nc1cccc2c1C(=O)c1sccc1CS2(=O)=O)C(F)(F)F (stereo not drawn) [Compound (I), 3,3,3-trifluoro-2-hydroxy-2-methyl-N-(5,5,10-trioxo-4,10-dihydrothieno[3,2-c][1]benzothiepin-9-yl)propanamide]
effect on A-type potassium channels, in words [1]: opening effect of A-type potassium channels

C[C@](O)(C(=O)Nc1cccc2c1C(=O)c1sccc1CS2(=O)=O)C(F)(F)F [Compound (Ia), (S)-(+)-3,3,3-trifluoro-2-hydroxy-2-methyl-N-(5,5,10-trioxo-4,10-dihydrothieno[3,2-c][1]benzothiepin-9-yl) propanamide]
amplitude of premicturition contractions (relative value, before administration = 100) [2, 3]: 71.9 ± 7.3 %
frequency of premicturition contractions (relative value, before administration = 100) [2, 3]: 61.6 ± 9.8 %
amplitude of premicturition contractions (relative value, before administration = 100) [2, 4]: 62.6 ± 7.3 %
frequency of premicturition contractions (relative value, before administration = 100) [2, 4]: 53.2 ± 4.9 %
amplitude of premicturition contractions (relative value, before administration = 100) [2, 5]: 65.1 ± 7.2%
frequency of premicturition contractions (relative value, before administration = 100) [2, 5]: 56.0 ± 8.3 %
effect on premicturition contractions (amplitude and frequency of premicturition contractions), in words [2]: inhibited premicturition contractions

Cc1ccc(O)c([C@H](CCN(C(C)C)C(C)C)c2ccccc2)c1 [Tolterodine, tolterodine, reference compound]
amplitude of premicturition contractions (relative value, before administration = 100) [2, 6]: 105.9 ± 24.3%
frequency of premicturition contractions (relative value, before administration = 100) [2, 6]: 70.4 ± 11.6%
amplitude of premicturition contractions (relative value, before administration = 100) [2, 7]: 79.6 ± 9.7%
frequency of premicturition contractions (relative value, before administration = 100) [2, 7]: 73.4 ± 8.2%
amplitude of premicturition contractions (relative value, before administration = 100) [2, 8]: 70.3 ± 11.9 %
frequency of premicturition contractions (relative value, before administration = 100) [2, 8]: 75.5 ± 12.0%
effect on premicturition contractions (amplitude and frequency of premicturition contractions), in words [2]: inhibited premicturition contractions
